Measurements: ChEMBL document CHEMBL1255371, “Clonal spread of highly beta-lactam-resistant Streptococcus pneumoniae isolates in Taiwan” (2008)
≈ marks a conversion by molar mass, not a printed value.

Key:
Format in all cases: functional
Streptococcus pneumoniae [1] = test: Antimicrobial activity against beta-lactam resistant Streptococcus pneumoniae clinical isolate by broth dilution method
Streptococcus pneumoniae [2] = test: Antimicrobial activity against Streptococcus pneumoniae in non-meningitis patients by broth dilution method
Streptococcus pneumoniae [3] = test: Antimicrobial activity against Streptococcus pneumoniae isolated from cerebrospinal fluid of patient with bacterial infection by broth dilution method
Streptococcus pneumoniae [4] = test: Antimicrobial activity against Streptococcus pneumoniae isolated from meningitis patient assessed as percent resistant isolates by CLSI method
Streptococcus pneumoniae [5] = test: Antimicrobial activity against Streptococcus pneumoniae in meningitis patients by broth dilution method
Streptococcus pneumoniae [6] = test: Antimicrobial activity against Streptococcus pneumoniae isolated from meningitis patient assessed as percent susceptible isolates by CLSI method
Streptococcus pneumoniae [7] = test: Antimicrobial activity against Streptococcus pneumoniae isolated from non-meningitis patient assessed as percent susceptible isolates by CLSI method
Streptococcus pneumoniae [8] = test: Antimicrobial activity against Streptococcus pneumoniae isolated from non-meningitis patient assessed as percent resistant isolates by CLSI method
Streptococcus pneumoniae [9] = test: Antimicrobial activity against Streptococcus pneumoniae isolated from patient with bacterial infection by broth dilution method

| Structure (SMILES) | MIC50 (Streptococcus pneumoniae [1]) | MIC90 (Streptococcus pneumoniae [1]) | MIC (Streptococcus pneumoniae [2]) | MIC (Streptococcus pneumoniae [3]) | Activity (Streptococcus pneumoniae [4]) | MIC (Streptococcus pneumoniae [5]) | Activity (Streptococcus pneumoniae [6]) | Activity (Streptococcus pneumoniae [7]) | Activity (Streptococcus pneumoniae [8]) | MIC (Streptococcus pneumoniae [9]) | MIC (Streptococcus pneumoniae [1]) |
| --- | --- | --- | --- | --- | --- | --- | --- | --- | --- | --- | --- |
| CCCCCCCCCC(=O)N[C@@H](Cc1c[nH]c2ccccc12)C(=O)N[C@H](CC(N)=O)C(=O)N[C@@H](CC(=O)O)C(=O)N[C@@H]1C(=O)NCC(=O)N[C@@H](CCCN)C(=O)N[C@@H](CC(=O)O)C(=O)N[C@H](C)C(=O)N[C@@H](CC(=O)O)C(=O)NCC(=O)N[C@H](CO)C(=O)N[C@@H]([C@H](C)CC(=O)O)C(=O)N[C@@H](CC(=O)c2ccccc2N)C(=O)O[C@@H]1C | 0.06 µg/mL (≈ 0.037 µM) | 0.06 µg/mL (≈ 0.037 µM) | – | – | – | – | – | – | – | – | – |
| CO/N=C(\C(=O)N[C@@H]1C(=O)N2C(C(=O)O)=C(COC(C)=O)CS[C@H]12)c1csc(N)n1 [CEFOTAXIME] | 0.5 µg/mL (≈ 1.1 µM) | 1 µg/mL (≈ 2.2 µM) | < 2 µg/mL | 1 µg/mL (≈ 2.2 µM) | 6.9% | 1 µg/mL (≈ 2.2 µM) | 58.5% | 93.1% | 1.4% | ≥ 2 µg/mL | – |
| Nc1nc(/C(=N/O)C(=O)N[C@@H]2C(=O)N3C(C(=O)O)=C(/C=C4\CCN([C@@H]5CCNC5)C4=O)CS[C@H]23)ns1 [CEFTOBIPROLE] | 0.25 µg/mL (≈ 0.468 µM) | 0.5 µg/mL (≈ 0.935 µM) | – | – | – | – | – | – | – | – | – |
| CC[C@H]1OC(=O)[C@H](C)[C@@H](O[C@H]2C[C@@](C)(OC)[C@@H](O)[C@H](C)O2)[C@H](C)[C@@H](O[C@@H]2O[C@H](C)C[C@H](N(C)C)[C@H]2O)[C@](C)(O)C[C@@H](C)C(=O)[C@H](C)[C@@H](O)[C@]1(C)O [ERYTHROMYCIN] | > 32 µg/mL | > 32 µg/mL | – | – | 90.9% | – | 6.9% | – | – | – | – |
| CO/N=C1\CN(c2nc3c(cc2F)c(=O)c(C(=O)O)cn3C2CC2)CC1CN (stereo unspecified) [GEMIFLOXACIN] | ≤ 0.03 µg/mL | ≤ 0.03 µg/mL | – | – | 1.1% | – | 98.9% | – | – | – | ≤ 0.03 µg/mL |
| C[C@H]1COc2c(N3CCN(C)CC3)c(F)cc3c(=O)c(C(=O)O)cn1c23.C[C@H]1COc2c(N3CCN(C)CC3)c(F)cc3c(=O)c(C(=O)O)cn1c23.O [LEVOFLOXACIN] | 1 µg/mL | 1 µg/mL | – | – | 1.9% | – | 98.1% | – | – | – | – |
| CC1(C)S[C@@H]2[C@H](NC(=O)Cc3ccccc3)C(=O)N2[C@H]1C(=O)O [PENICILLIN G] | 1 µg/mL (≈ 2.99 µM) | 2 µg/mL (≈ 5.98 µM) | ≥ 4 µg/mL | – | 44.5% | ≥ 0.1 µg/mL | 16.8% | – | – | ≥ 0.1 µg/mL | – |
| CN(C)c1cc(NC(=O)CNC(C)(C)C)c(O)c2c1C[C@H]1C[C@H]3[C@H](N(C)C)C(O)=C(C(N)=O)C(=O)[C@@]3(O)C(O)=C1C2=O [TIGECYCLINE] | ≤ 0.015 µg/mL | 0.03 µg/mL (≈ 0.0512 µM) | – | – | – | – | – | – | – | – | ≤ 0.015 µg/mL |
| CN[C@H](CC(C)C)C(=O)N[C@H]1C(=O)N[C@@H](CC(N)=O)C(=O)N[C@H]2C(=O)N[C@H]3C(=O)N[C@H](C(=O)N[C@H](C(=O)O)c4cc(O)cc(O)c4-c4cc3ccc4O)[C@H](O)c3ccc(c(Cl)c3)Oc3cc2cc(c3O[C@@H]2O[C@H](CO)[C@@H](O)[C@H](O)[C@H]2O[C@H]2C[C@](C)(N)[C@H](O)[C@H](C)O2)Oc2ccc(cc2Cl)[C@H]1O [VANCOMYCIN] | 0.25 µg/mL (≈ 0.173 µM) | 0.5 µg/mL (≈ 0.345 µM) | – | – | 0% | – | 100% | – | – | – | – |
